Source: ChEMBL document CHEMBL1201862, “PubChem BioAssay data set” (2004)
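Following 48 hours of exposure in 96-well plates, responses at five concentrations were used to interpolate endpoints linearly. GI50 = concentration required for 50% inhibition of growth.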 Calls of active or inactive are those of the source. Cut-off read from the data, not from the text of the source: active = GI50 up to about 1.1 µM and inactive = higher.

Legend:
Experiment in all cases: NCI-60 cell line screen, 48 h
A498 = test system: A498
A549 = test system: A549
CAKI-1 = test system: CAKI-1
COLO 205 = test system: COLO 205
DU-145 = test system: DU-145
HCT-116 = test system: HCT-116
HT-29 = test system: HT-29
KM12 = test system: KM12
LOX IMVI = test system: LOX IMVI
PC-3 = test system: PC-3
RPMI-8226 = test system: RPMI-8226
SF-268 = test system: SF-268
SK-MEL-28 = test system: SK-MEL-28
SK-OV-3 = test system: SK-OV-3
SNB-19 = test system: SNB-19
SNB-75 = test system: SNB-75
TK-10 = test system: TK-10
UACC-257 = test system: UACC-257
UO-31 = test system: UO-31
NCI-H460 = test system: NCI-H460

Row | SMILES | GI50 (A498) | GI50 (A549) | GI50 (CAKI-1) | GI50 (COLO 205) | GI50 (DU-145) | GI50 (HCT-116) | GI50 (HT-29) | GI50 (KM12) | GI50 (LOX IMVI) | GI50 (PC-3) | GI50 (RPMI-8226) | GI50 (SF-268) | GI50 (SK-MEL-28) | GI50 (SK-OV-3) | GI50 (SNB-19) | GI50 (SNB-75) | GI50 (TK-10) | GI50 (UACC-257) | GI50 (UO-31) | GI50 (NCI-H460)
1 | OCC(O)C(O)C(O)C(/C=N\Nc1ncnc2ccc(Br)cc12)=N/Nc1ncnc2ccc(Br)cc12 (centres undefined) | 50.5 µM (inactive) | 23.2 µM (inactive) | 4.55 µM (inactive) | 3.31 µM (inactive) | 5.65 µM (inactive) | 3.09 µM (inactive) | 4.44 µM (inactive) | 17.2 µM (inactive) | 5.12 µM (inactive) | 19 µM (inactive) | > 100 µM (inactive) | 0.423 µM (active) | 45.9 µM (inactive) | 6.38 µM (inactive) | 51.5 µM (inactive) | 24.4 µM (inactive) | 80.5 µM (inactive) | 7.48 µM (inactive) | 37.5 µM (inactive) | 
2 | N/C(=N\Nc1nc2cc([N+](=O)[O-])ccc2o1)c1ccccn1 | 0.248 µM (active) | 0.163 µM (active) | 0.16 µM (active) | 0.0366 µM (active) | 0.182 µM (active) | 0.0369 µM (active) | 0.0493 µM (active) | 0.372 µM (active) | 0.071 µM (active) | 0.122 µM (active) | 0.123 µM (active) | 0.0738 µM (active) | 0.222 µM (active) | 0.403 µM (active) | 0.506 µM (active) | 0.817 µM (active) | 0.193 µM (active) | 0.0929 µM (active) |  | 0.0468 µM (active)
3 | O=C(NNc1ccc([N+](=O)[O-])cc1[N+](=O)[O-])/C(O)=C\C(=O)c1ccccc1 | 28.9 µM (inactive) | 17.6 µM (inactive) | 21.1 µM (inactive) | 18.4 µM (inactive) | 16.9 µM (inactive) | 14.4 µM (inactive) |  | 16.3 µM (inactive) | 24.5 µM (inactive) | 20.3 µM (inactive) | 15.3 µM (inactive) | 17.7 µM (inactive) | 23.5 µM (inactive) | 18.6 µM (inactive) | 25.4 µM (inactive) | 12.8 µM (inactive) | 22.4 µM (inactive) | 29 µM (inactive) | 14.3 µM (inactive) | 19 µM (inactive)
4 | C[N+](C)(CCNC(=O)c1cccc2cc3ccccc3nc12)Cc1ccc([N+](=O)[O-])s1 | > 25 µM (inactive) | > 25 µM (inactive) | 14.9 µM (inactive) | > 25 µM (inactive) | > 25 µM (inactive) | > 25 µM (inactive) | > 25 µM (inactive) | > 25 µM (inactive) | > 25 µM (inactive) | > 25 µM (inactive) | > 25 µM (inactive) | > 25 µM (inactive) | > 25 µM (inactive) | > 25 µM (inactive) |  | > 25 µM (inactive) | > 25 µM (inactive) | > 25 µM (inactive) | > 25 µM (inactive) | 
5 | COc1ccc(NC(C)=O)c(C(=O)CCNC(C)=O)c1 | > 100 µM (inactive) | > 100 µM (inactive) | > 100 µM (inactive) | > 100 µM (inactive) | > 100 µM (inactive) | > 100 µM (inactive) | > 100 µM (inactive) | > 100 µM (inactive) | > 100 µM (inactive) | > 100 µM (inactive) | > 100 µM (inactive) | > 100 µM (inactive) |  | > 100 µM (inactive) | > 100 µM (inactive) | > 100 µM (inactive) | > 100 µM (inactive) | > 100 µM (inactive) | > 100 µM (inactive) | > 100 µM (inactive)
